# Assays:
# rat TG neurons [1] = assay: heat-evoked (48° C.) iCGRP release from rat TG neurons; assay type: cell-based; settings: NDGA 10 uM, indomethacin 2 uM, I-RTX 200 nM
# TG neurons from WT mice = assay: [Ca2+]i levels in cultured TG neurons from WT mice; assay type: cell-based, mouse; settings: for [Ca2+]i response evoked in TG neurons / responding neurons / capsaicin-sensitive neurons: 100 μM
# Description: (§1) FIGS. 1A-H depict that endogenous TRPV1 ligands are generated upon heat insult of mouse skin. The hypothesis of heat-evoked generation of endogenous TRPV1 ligand(s) was evaluated by harvesting mouse skin and then collecting superfusate samples after 20 min exposure to basal (37° C.=“control” skin) or noxious (48° C.=“heated” skin) temperatures. Aliquots of the two superfusates were applied, at room temperature, to cultured trigeminal ganglia (TG) neurons from wild type (WT) or TRPV1 knock out (TRPV1 KO) mice for measurement of evoked increases in intracellular calcium levels [Ca^2+]i. […] Conversely, there were no changes in [Ca^2+]i after application of supernatants from heated skin to either TRPV1 KO cultures (FIG. 1B; mustard oil served as a positive control) or to WT neurons insensitive to capsaicin (data not shown).
# (§2) The pharmacological activity of synthetic 9-HODE and related compounds on sensory neurons was characterized. […] Another major metabolic pathway of linoleic acid leads to formation of 13-HODE and its metabolite, 13-oxoODE. The relative efficacy of these four compounds for evoked [Ca^2+]i levels was evident when tested in cultured neurons from WT mice (FIG. 3G) and in TRPV1-expressing CHO cells (FIG. 3H).
# (§3) The epoxy metabolite, 9,10 EpOME (also known as leukotoxin), is highly elevated in burn patients and is implicated in shock in these patients.
# (§4) FIG. 12 depicts the effect of lipids extracted from burned human skin samples against cultured trigeminal sensory neurons from control (wild type, “WT”) mice and from TRPV1 knock-out mice. Samples of burned human skin and control (non-burned) human skin from patients undergoing treatment in a hospital burn ward were obtained. The lipids from the skin samples were extracted by incubation with acetonitrile and the samples dried under nitrogen gas. The samples were tested against cultured trigeminal sensory neurons from control (wild type, “WT”) mice and from TRPV1 knock-out mice using real time imaging of calcium accumulation (fura-2 method). Extracts from human control (non burned) skin had no effect on activating neurons from either control (WT) or TRPV1 knockout (TRPV1 KO) mice. […] Thus, similar to the oxidized linoleic acid metabolites, the extracts from burned human skin activate TRPV1 and some other channels.
# [2] = tested on: TG neurons from TRPV1 KO mice; assay: [Ca2+]i levels in cultured TG neurons from TRPV1 KO mice; assay type: cell-based, mouse
# Description: as §1, §2, §3, §4
# WT mice = assay: hindpaw intraplantar (ipl) injection, thermal allodynia, WT mice; assay type: in vivo, mouse
# TRPV1 KO mice = assay: hindpaw intraplantar (ipl) injection, thermal allodynia, TRPV1 KO mice; assay type: in vivo, mouse
# rats [3] = assay: intrathecal application, tactile allodynia in rats; assay type: in vivo, rat
# From the text: FIGS. 9A-D depict that spinal injection (intrathecal) of capsaicin or 9-HODE into the spinal cord space results in tactile allodynia. This effect is mediated by activation of TRPV1 since it is blocked by a TRPV1 antagonist (AMG 9810). […] The results were compared with the results obtained with the positive control capsaicin. […] Comparison of the peak effect evoked by both capsaicin and 9-HODE is shown in FIGS. 9C-D. The effects were remarkably similar.
# cultured rat TG neurons = assay: CGRP release from cultured rat TG neurons evoked by 9-HODE; assay type: cell-based
# rat TG neurons [4] = assay: activation of rat TG neurons by compound(s) released from heated skin, pretreatment with TRPV1 antagonist; assay type: cell-based; settings: I-RTX 200 nM pretreatment; superfusates from skin exposed to 48° C.
# Description: To further characterize the TRPV1 specificity of these endogenous heat-generated compound(s), the effect of pretreatment with the TRPV1 antagonist iodo-resiniferatoxin (I-RTX) on the activation of rat TG neurons was evaluated. […] Moreover, application of these compound(s) triggered prompt increases in [Ca]i in CHO cells expressing TRPV1, but not in negative control CHO cells that expressed a GFP construct (FIGS. 1E-F). Next, initial superfusion experiments in isolated mouse skin were expanded by collecting supernatant after exposure to various temperatures and evaluating the release of endogenous TRPV1 compound(s).
# rat TG neurons [5] = assay: patch clamp electrophysiology, heat (48° C.)-evoked inward current (Iheat) in rat TG neurons; assay type: cell-based; settings: pretreatment, NDGA 30 uM, miconazole 100 uM
# Description: FIGS. 5A-D depict that interventions reducing production or action of linoleic acid oxidation products results in decreased thermal pain. Whether heat-evoked activation of rat TG neurons is inhibited by interventions directed against linoleic acid metabolites was evaluated. […] Using patch clamp electrophysiology, the local application of a heat step (48° C.) produced a strong inward current (Iheat) in TG neurons. Pretreatment with NDGA produced ˜50% reduction (p<0.05) in Iheat. (FIG. 5B). In a similar patch clamp electrophysiology set up, pretreatment with miconazole (100 uM) produced more than 75% reduction (p<0.001) in Iheat (FIG. 5C). Whether intracellular immunoneutralization against 9-HODE and 13-HODE alters the responsiveness of sensory neurons to noxious heat was evaluated next. A solution containing both anti-9-HODE and anti-13-HODE antibodies (concentrations of 0.03-0.06 ug and 0.006-0.012 ug/patch pipette respectively) was delivered intracellularly via dialysis for 5 min prior to the application of a heat step (48° C.).
# rats [6] = assay: thermal nociception in rats after intraplantar hindpaw (ipl) injection; assay type: in vivo, rat; settings: 100 ug/paw ipl, 15 minute, ipsilateral hindpaw
# Description: The intraplantar hindpaw (ipl) injection of NDGA, miconazole, and a combination of anti 9-HODE and anti-13-HODE was compared to morphine sulfate, a gold standard analgesic. […] The studies were performed in a separate groups of animals for each condition and by observers blinded to treatment allocation (all compounds at 100 ug/paw and antibodies were each 25 ug/paw) (FIG. 10).
# [7] = tested on: rat trigeminal sensory neurons; assay: linoleic acid activation of rat trigeminal sensory neurons, intracellular calcium (Fura-2); assay type: cell-based; settings: pretreatment; for inhibition of the formation of linoleic acid metabolites (neuron-activating compounds): concluded from the neuron activation test
# From the text: FIG. 14 depicts the effects of pretreatment with either cytochrome P450 inhibitors (NDGA, DPI, CO or ketoconazole, ODYA), nitric oxide synthase inhibitors (L-NAME, L-NNA), lipoxygenase inhibitors (BW-70C, PD, TEDC) or antioxidants (TROLOX, NAC, TEMPOL) versus negative controls (vehicle, argon) on the ability of linoleic acid to activate rat trigeminal sensory neurons as measured by real time levels of intracellular calcium (Fura-2, as indicated by the ratio of 340/380).
# TRPV4 = target: T1, TRPV4 (Homo sapiens, UniProt Q9HBA0); assay: [Ca2+]i in CHO cells expressing TRPV4; assay type: cell-based; settings: screening against other heat-sensitive TRP channels
# T1 construct: expressed in transfected cells; host or cells: CHO cells
# From the text: as §3
# FIG. 13 depicts the effect of lipids, extracted from burned human skin samples, and then applied to CHO cells that expressed either TRPV1, TRPV2, TRPV3, TRPV4 or TRPA1, using real time calcium imaging. As shown, the extracts of the burned human skin activated TRPV1, TRPV3, TRPV4 and TRPA1, but not TRPV2.
# T1 sequence (Q9HBA0 whole entry, species assumed): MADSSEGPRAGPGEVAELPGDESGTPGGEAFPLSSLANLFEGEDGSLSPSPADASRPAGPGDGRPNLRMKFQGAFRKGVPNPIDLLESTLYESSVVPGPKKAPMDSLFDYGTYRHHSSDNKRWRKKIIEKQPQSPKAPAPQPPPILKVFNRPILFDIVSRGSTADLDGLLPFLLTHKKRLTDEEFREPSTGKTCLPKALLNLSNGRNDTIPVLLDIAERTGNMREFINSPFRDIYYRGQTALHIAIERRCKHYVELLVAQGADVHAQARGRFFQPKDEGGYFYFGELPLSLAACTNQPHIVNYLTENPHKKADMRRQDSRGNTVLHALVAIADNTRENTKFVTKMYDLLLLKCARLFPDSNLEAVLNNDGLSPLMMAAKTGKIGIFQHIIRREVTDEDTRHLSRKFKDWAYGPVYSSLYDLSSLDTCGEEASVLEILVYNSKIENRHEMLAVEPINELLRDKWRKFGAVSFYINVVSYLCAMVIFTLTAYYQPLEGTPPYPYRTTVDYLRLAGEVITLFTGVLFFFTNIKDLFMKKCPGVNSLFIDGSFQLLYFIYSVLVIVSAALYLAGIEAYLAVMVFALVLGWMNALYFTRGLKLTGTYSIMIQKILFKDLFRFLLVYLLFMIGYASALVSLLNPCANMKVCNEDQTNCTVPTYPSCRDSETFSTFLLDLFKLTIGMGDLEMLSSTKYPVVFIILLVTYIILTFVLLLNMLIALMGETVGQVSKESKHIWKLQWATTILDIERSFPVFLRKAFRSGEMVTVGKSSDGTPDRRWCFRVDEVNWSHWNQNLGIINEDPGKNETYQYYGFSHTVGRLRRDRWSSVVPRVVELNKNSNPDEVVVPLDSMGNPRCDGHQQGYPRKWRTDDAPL
smiles,measurement,setting,value
COc1ccc2c(c1)c(CC(=O)O)c(C)n2C(=O)c1ccc(Cl)cc1 [indomethacin],reversal of heat-evoked iCGRP release by pretreatment,rat TG neurons [1],not
"CCCCC/C=C\CC1OC1CCCCCCCC(=O)O (stereo not shown) [9,10 EpOME, (12Z)-9,10-epoxyoctadecenoic acid]",[Ca2+]i response evoked in TG neurons,TG neurons from WT mice,evoked calcium accumulation only in capsaicin-sensitive neurons
same,responding neurons / capsaicin-sensitive neurons,TG neurons from WT mice,58/58
same,responding neurons / tested neurons,[2],0/58
same,thermal allodynia after ipl injection,WT mice; 50 μg/ipl,evoked thermal allodynia
same,thermal allodynia after ipl injection,TRPV1 KO mice; 50 μg/ipl,absent
CC(C)(C)c1ccc(/C=C/C(=O)Nc2ccc3c(c2)OCCO3)cc1 [AMG 9810],reversal of 9-HODE-evoked tactile allodynia,"rats [3]; AMG 9810 50 ug, 9-HODE 5 ug intrathecal",completely reversible
same,reversal of capsaicin-evoked tactile allodynia,"rats [3]; AMG 9810 50 ug, capsaicin 5 ug intrathecal",completely reversible
same,effect alone on mechanical withdrawal thresholds,"rats [3]; antagonist alone, intrathecal",Neither the vehicle nor AMG 9810 alone had any effect
"CCCCC/C=C\C=C\C(O)CCCCCCCC(=O)O (stereo not shown) [9-HODE, 9-hydroxyoctadecadienoic acid]",[Ca2+]i response evoked in TG neurons,TG neurons from WT mice,robust response
same,responding neurons / capsaicin-sensitive neurons,TG neurons from WT mice,75/75
same,magnitude of [Ca2+]i accumulation and its time course compared to WT neurons,[2],greatly reduced
same,responding neurons / tested neurons,[2],3/66
same,tested neurons with a slight response,[2],4%
same,concentration at which effects on CGRP release are evident,cultured rat TG neurons,10 nM
same,EC50,cultured rat TG neurons; read-out: EC50 of increase in CGRP release,~300 nM
same,thermal allodynia after ipl injection,WT mice; blinded observers,significantly greater thermal allodynia
same,thermal allodynia after ipl injection,TRPV1 KO mice; blinded observers,not in TRPV1 KO mice
same,tactile allodynia evoked by intrathecal application,rats [3]; 5 ug intrathecal,evoked tactile allodynia that was of similar magnitude and duration to that of capsaicin
"C=C(C)[C@]12C[C@@H](C)[C@@]34O[C@](Cc5ccccc5)(O[C@@H]1[C@@H]3C=C(COC(=O)Cc1cc(I)c(O)c(OC)c1)C[C@]1(O)C(=O)C(C)=C[C@@H]41)O2 [I-RTX, iodo-resiniferatoxin]",reversal of heat-evoked iCGRP release by pretreatment,rat TG neurons [1],partially reversed
same,block of activation of neurons by compound(s) released from heated skin,rat TG neurons [4],completely blocked
Clc1ccc(COC(Cn2ccnc2)c2ccc(Cl)cc2Cl)c(Cl)c1 (stereo not shown) [miconazole],reduction in Iheat,rat TG neurons [5],more than 75%
same,thermal antinociception,rats [6],thermal antinociception far beyond that of the vehicle or morphine injected rats
CC(=O)N1CCN(c2ccc(OCC3COC(Cn4ccnc4)(c4ccc(Cl)cc4Cl)O3)cc2)CC1 (stereo not shown) [ketoconazole],block of the ability of linoleic acid to activate pain neurons,[7]; Fura-2 ratio 340/380,completely blocked
same,inhibition of the formation of linoleic acid metabolites (neuron-activating compounds),[7],inhibits the formation of linoleic acid metabolites
"CC(Cc1ccc(O)c(O)c1)C(C)Cc1ccc(O)c(O)c1 (stereo not shown) [NDGA, Nordihydroguaiaretic Acid]",reversal of heat-evoked iCGRP release by pretreatment,rat TG neurons [1],partially reversed
same,reduction in Iheat,rat TG neurons [5],~50%
same,thermal antinociception,rats [6],thermal antinociception far beyond that of the vehicle or morphine injected rats
COc1cc(CNC(=O)CCCC/C=C/C(C)C)ccc1O [capsaicin],duration of tactile allodynia post injection,rats [3]; 5 ug intrathecal,1 h
same,tactile allodynia evoked by intrathecal application,rats [3]; 5 ug intrathecal,evoked tactile allodynia
"CCCCC/C=C\C=C\C(=O)CCCCCCCC(=O)O [9-oxoODE, (10E,12Z)-9-oxooctadeca-10,12-dienoic acid]",[Ca2+]i levels after application,TG neurons from WT mice; concentration not given,triggered increased [Ca^2+]i levels
same,[Ca2+]i levels after application,[2]; concentration not given,not in neurons from TRPV1 KO mice
"C#CCCCCCCCCCCCCCCCC(=O)O [ODYA, 17-Octadecynoic acid]",inhibition of the formation of linoleic acid metabolites (neuron-activating compounds),[7],does not
"CCCCCC=CCC(O)C(O)CCCCCCCC(=O)O (stereo not shown) [9,10-DiHOME, 9(10)-dihydroxy-octadec-12-enoic acid]",TRPV4 agonist activity,TRPV4,TRPV4 agonist
